Reference: EP0315197B1 (GÖDECKE AKTIENGESELLSCHAFT, priority 1987, dated 1989)
Structures can show the parent of a compound that is named as a salt. Where two headings read alike, the source gives them in different places.

What was measured:
[1] = Kölle 1983; cited from earlier work
[2] = system: Hypertonie; settings: for Response-Rate / Senkung des mittleren systolischen Blutdrucks im Sitzen: 8 weeks; for Senkung des diastolischen Blutdrucks im Sitzen: after 8 weeks vs placebo phase, morning pre-dose, mean; for DBD sitzend / DBD stehend / HR sitzend / HR stehend / SBD sitzend / SBD stehend: mean (SD)
Method: In diese multizentrische randomisierte Doppelblind-Parallel-Studie wurden wiederum Hypertoniker der WHO-Klasse I-III eingeschlossen, deren diastolischer Blutdruck am Ende der Placebophase höher als 95 mmHg war. Einer 2-wöchigen Placebophase folgte eine Behandlungsphase von 8 Wochen. Das Therapieschema von 1 x tgl. 180 mg bzw. 2 x tgl. 90 mg glich dem der vorangegangenen Studie. Zur Beurteilung der Wirksamkeit wurde die Senkung des diastolischen Blutdrucks bei der Messung am Morgen herangezogen, die jeweils nach 8 Wochen Behandlung erzielt worden war. Die Blutdruckmessung erfolgte wiederum vor der Medikation, um Aufschluß über die 24-h-Wirkung bei der einmal täglichen Behandlung zu erhalten.

[3] = system: Hypertonie; settings: for Senkung der Herzfrequenz / Senkung des systolischen Blutdrucks im Sitzen: 3 weeks; for Abnahme des diastolischen Blutdrucks: after 3 weeks vs end of placebo phase, depending on time of measurement; for Response-Rate zum Zeitpunkt 8 Uhr: pre-dose; for globale Response-Rate (Anteil der Patienten mit Response zu allen drei Meßzeitpunkten): response = diastolic decrease of at least 10 mmHg or below 90 mmHg; for DBD sitzend / DBD stehend / HR sitzend / SBD sitzend / SBD stehend / HR stehend: mean (SD)
From the text: Die Patienten befanden sich stationär in Reha-Kliniken.
Nach Absetzen einer eventuellen antihypertensiven Vorbehandlung erhielten die Patienten zunächst 1 Woche Placebo.
Zur Beurteilung der Wirksamkeit wurde der diastolische Blutdruck im Sitzen zu 3 verschiedenen Tageszeiten (8, 11 und 17 Uhr) herangezogen. "Response" war definiert als eine Senkung des diastolischen Blutdrucks um mindestens 10 mmHg oder unter einen Wert von 90 mmHg.

[4] = 1 × 180 mg (n = 30), Basislinie (end of placebo phase)
[5] = 1 × 180 mg (n = 30), Endpunkt (8 weeks)
[6] = 2 × 90 mg (n = 30), Basislinie (end of placebo phase)
[7] = 2 × 90 mg (n = 30), Endpunkt (8 weeks)
[8] = 5 p.m., 1 × 180 mg (n = 40), Basislinie (end of placebo phase)
[9] = 5 p.m., 1 × 180 mg (n = 40), Endpunkt (3 weeks)
[10] = 5 p.m., 2 × 90 mg (n = 42), Basislinie (end of placebo phase)
[11] = 5 p.m., 2 × 90 mg (n = 42), Endpunkt (3 weeks)
[12] = 8 a.m., 1 × 180 mg (n = 40), Basislinie (end of placebo phase)
[13] = 8 a.m., 1 × 180 mg (n = 40), Endpunkt (3 weeks)
[14] = 8 a.m., 2 × 90 mg (n = 42), Basislinie (end of placebo phase)
[15] = 8 a.m., 2 × 90 mg (n = 42), Endpunkt (3 weeks)
[16] = 11 a.m., 1 × 180 mg (n = 40), Basislinie (end of placebo phase)
[17] = 11 a.m., 1 × 180 mg (n = 40), Endpunkt (3 weeks)
[18] = 11 a.m., 2 × 90 mg (n = 42), Basislinie (end of placebo phase)
[19] = 11 a.m., 2 × 90 mg (n = 42), Endpunkt (3 weeks)

SMILES: COc1ccc([C@@H]2Sc3ccccc3N(CCN(C)C)C(=O)[C@@H]2OC(C)=O)cc1 [Diltiazem, Diltiazemhydrochlorid]
- Halbwertzeit für die Elimination, α-Phase [1]: 0,1 h
- Halbwertzeit für die Elimination, β-Phase [1]: 2,1 h
- Halbwertzeit für die Elimination, γ-Phase [1]: 9,8 h
- Response-Rate ([2]; 1 x 180 mg group): 80%
- Senkung des diastolischen Blutdrucks im Sitzen ([2]; 1 x 180 mg group): 13 mmHg
- Senkung des mittleren systolischen Blutdrucks im Sitzen ([2]; 1 x 180 mg): 16 mmHg
- DBD sitzend [2, 4]: 100.7 (3.0) mmHg
- DBD stehend [2, 4]: 98.7 (3.2) mmHg
- HR sitzend [2, 4]: 72.5 (4.9) 1/min
- HR stehend [2, 4]: 74.9 (6.3) 1/min
- SBD sitzend [2, 4]: 175.1 (16.6) mmHg
- SBD stehend [2, 4]: 169.7 (19.8) mmHg
- DBD sitzend [2, 5]: 87.8 (9.1) mmHg
- DBD stehend [2, 5]: 84.8 (9.2) mmHg
- HR sitzend [2, 5]: 68.7 (4.4) 1/min
- HR stehend [2, 5]: 71.3 (5.2) 1/min
- SBD sitzend [2, 5]: 159.0 (18.8) mmHg
- SBD stehend [2, 5]: 150.5 (26.6) mmHg
- Response-Rate ([2]; 2 x 90 mg group): 70%
- Senkung des diastolischen Blutdrucks im Sitzen ([2]; 2 x 90 mg group): 12 mmHg
- Senkung des mittleren systolischen Blutdrucks im Sitzen ([2]; 2 x 90 mg): 10 mmHg
- DBD sitzend [2, 6]: 99.1 (3.2) mmHg
- DBD stehend [2, 6]: 99.0 (3.1) mmHg
- HR sitzend [2, 6]: 73.5 (6.5) 1/min
- HR stehend [2, 6]: 75.9 (7.5) 1/min
- SBD sitzend [2, 6]: 169.4 (19.7) mmHg
- SBD stehend [2, 6]: 168.5 (22.1) mmHg
- DBD sitzend [2, 7]: 88.4 (8.0) mmHg
- DBD stehend [2, 7]: 86.9 (8.6) mmHg
- HR sitzend [2, 7]: 69.8 (6.0) 1/min
- HR stehend [2, 7]: 72.5 (7.0) 1/min
- SBD sitzend [2, 7]: 159.2 (23.7) mmHg
- SBD stehend [2, 7]: 156.7 (28.4) mmHg
- Senkung der Herzfrequenz ([3]; 1 x 180 mg group): 4-8 Schläge pro Minute
- Senkung des systolischen Blutdrucks im Sitzen ([3]; 1 x 180 mg group): 19-22 mmHg
- Abnahme des diastolischen Blutdrucks ([3]; 1 x 180 mg group): 13-16 mmHg
- Response-Rate zum Zeitpunkt 8 Uhr ([3]; 1 x 180 mg group): 87,5%
- globale Response-Rate (Anteil der Patienten mit Response zu allen drei Meßzeitpunkten) ([3]; 1 x 180 mg group): 85%
- Senkung der Herzfrequenz ([3]; 2 x 90 mg group): 4-8 Schläge pro Minute
- Senkung des systolischen Blutdrucks im Sitzen ([3]; 2 x 90 mg group): 15-18 mmHg
- Abnahme des diastolischen Blutdrucks ([3]; 2 x 90 mg group): 13-16 mmHg
- Response-Rate zum Zeitpunkt 8 Uhr ([3]; 2 x 90 mg group): 81%
- globale Response-Rate (Anteil der Patienten mit Response zu allen drei Meßzeitpunkten) ([3]; 2 x 90 mg group): 62%
- DBD sitzend [3, 8]: 99.2 (3.9) mmHg
- DBD stehend [3, 8]: 101.0 (4.8) mmHg
- HR sitzend [3, 8]: 76.5 (9.2) 1/min
- SBD sitzend [3, 8]: 158.9 (16.1) mmHg
- SBD stehend [3, 8]: 158.4 (16.3) mmHg
- DBD sitzend [3, 9]: 85.2 (8.8) mmHg
- DBD stehend [3, 9]: 88.8 (8.9) mmHg
- HR sitzend [3, 9]: 70.0 (7.2) 1/min
- HR stehend [3, 9]: 78.6 (7.7) 1/min
- SBD sitzend [3, 9]: 140.2 (14.2) mmHg
- SBD stehend [3, 9]: 138.5 (14.8) mmHg
- DBD sitzend [3, 10]: 99.9 (5.9) mmHg
- DBD stehend [3, 10]: 102.5 (5.8) mmHg
- HR sitzend [3, 10]: 77.0 (8.4) 1/min
- SBD stehend [3, 10]: 156.7 (15.0) mmHg
- DBD sitzend [3, 11]: 87.0 (10.7) mmHg
- DBD stehend [3, 11]: 87.7 (9.2) mmHg
- HR sitzend [3, 11]: 72.1 (8.1) 1/min
- HR stehend [3, 11]: 79.6 (9.1) 1/min
- SBD stehend [3, 11]: 138.6 (15.1) mmHg
- DBD sitzend [3, 12]: 98.3 (3.9) mmHg
- DBD stehend [3, 12]: 100.1 (7.1) mmHg
- HR sitzend [3, 12]: 76.8 (9.4) 1/min
- HR stehend [3, 12]: 87.2 (11.0) 1/min
- SBD sitzend [3, 12]: 161.3 (16.2) mmHg
- SBD stehend [3, 12]: 158.6 (16.4) mmHg
- DBD sitzend [3, 13]: 85.3 (8.3) mmHg
- DBD stehend [3, 13]: 87.3 (9.8) mmHg
- HR sitzend [3, 13]: 73.7 (7.1) 1/min
- HR stehend [3, 13]: 80.6 (7.4) 1/min
- SBD stehend [3, 13]: 141.0 (14.8) mmHg
- DBD sitzend [3, 14]: 99.8 (5.2) mmHg
- DBD stehend [3, 14]: 102.0 (5.8) mmHg
- HR sitzend [3, 14]: 76.4 (9.6) 1/min
- SBD stehend [3, 14]: 155.5 (17.9) mmHg
- DBD sitzend [3, 15]: 83.9 (10.7) mmHg
- DBD stehend [3, 15]: 88.5 (9.7) mmHg
- HR sitzend [3, 15]: 72.1 (8.2) 1/min
- HR stehend [3, 15]: 79.0 (8.0) 1/min
- SBD stehend [3, 15]: 137.4 (16.1) mmHg
- DBD sitzend [3, 16]: 98.5 (3.9) mmHg
- DBD stehend [3, 16]: 100.5 (5.8) mmHg
- HR sitzend [3, 16]: 75.1 (9.2) 1/min
- HR stehend [3, 16]: 84.4 (9.5) 1/min
- SBD sitzend [3, 16]: 159.2 (18.2) mmHg
- SBD stehend [3, 16]: 157.9 (19.6) mmHg
- DBD sitzend [3, 17]: 83.3 (8.2) mmHg
- DBD stehend [3, 17]: 87.1 (8.3) mmHg
- HR sitzend [3, 17]: 71.1 (7.0) 1/min
- HR stehend [3, 17]: 78.8 (6.9) 1/min
- SBD sitzend [3, 17]: 137.6 (12.2) mmHg
- SBD stehend [3, 17]: 137.1 (14.2) mmHg
- DBD sitzend [3, 18]: 100.2 (5.4) mmHg
- DBD stehend [3, 18]: 102.9 (5.6) mmHg
- HR sitzend [3, 18]: 76.0 (9.1) 1/min
- HR stehend [3, 18]: 83.6 (10.4) 1/min
- SBD sitzend [3, 18]: 158.1 (16.5) mmHg
- SBD stehend [3, 18]: 155.8 (17.7) mmHg
- DBD sitzend [3, 19]: 85.4 (9.5) mmHg
- DBD stehend [3, 19]: 87.3 (10.6) mmHg
- HR sitzend [3, 19]: 71.3 (7.8) 1/min
- HR stehend [3, 19]: 78.6 (8.6) 1/min
- SBD sitzend [3, 19]: 140.1 (15.8) mmHg
- SBD stehend [3, 19]: 135.7 (15.5) mmHg
